Experimental data from US20250326749A1, “COMPOUNDS, COMPOSITIONS, AND METHODS OF USING THEREOF” (Sionna Therapeutics Inc., priority 2022, published 2025).

Molecular target: T1, ΔF508-CFTR (Homo sapiens, UniProt P13569, DEL508-508)
T1 construct: expressed in transfected cells; host or cells: CFSMEo- (human CF submucosal gland epithelial cells, ΔF508/Q2X), transiently transfected by nucleofection
Test: ΔF508-CFTR-HRP trafficking assay (cell surface expression of ΔF508-CFTR)
Format: cell-based
Details: CFSMEo- cells transiently transfected with ΔF508-CFTR-HRP; test agent 3 μM, 48 h; HRP chemiluminescence
In short: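 Surface-expressed ΔF508-CFTR measured via extracellular HRP tag: cell-impermeable chemiluminescent substrate, 5 min, signal normalized to 0.3% DMSO vehicle.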

T1 sequence (P13569 with tags, fused parts or gaps DEL508-508): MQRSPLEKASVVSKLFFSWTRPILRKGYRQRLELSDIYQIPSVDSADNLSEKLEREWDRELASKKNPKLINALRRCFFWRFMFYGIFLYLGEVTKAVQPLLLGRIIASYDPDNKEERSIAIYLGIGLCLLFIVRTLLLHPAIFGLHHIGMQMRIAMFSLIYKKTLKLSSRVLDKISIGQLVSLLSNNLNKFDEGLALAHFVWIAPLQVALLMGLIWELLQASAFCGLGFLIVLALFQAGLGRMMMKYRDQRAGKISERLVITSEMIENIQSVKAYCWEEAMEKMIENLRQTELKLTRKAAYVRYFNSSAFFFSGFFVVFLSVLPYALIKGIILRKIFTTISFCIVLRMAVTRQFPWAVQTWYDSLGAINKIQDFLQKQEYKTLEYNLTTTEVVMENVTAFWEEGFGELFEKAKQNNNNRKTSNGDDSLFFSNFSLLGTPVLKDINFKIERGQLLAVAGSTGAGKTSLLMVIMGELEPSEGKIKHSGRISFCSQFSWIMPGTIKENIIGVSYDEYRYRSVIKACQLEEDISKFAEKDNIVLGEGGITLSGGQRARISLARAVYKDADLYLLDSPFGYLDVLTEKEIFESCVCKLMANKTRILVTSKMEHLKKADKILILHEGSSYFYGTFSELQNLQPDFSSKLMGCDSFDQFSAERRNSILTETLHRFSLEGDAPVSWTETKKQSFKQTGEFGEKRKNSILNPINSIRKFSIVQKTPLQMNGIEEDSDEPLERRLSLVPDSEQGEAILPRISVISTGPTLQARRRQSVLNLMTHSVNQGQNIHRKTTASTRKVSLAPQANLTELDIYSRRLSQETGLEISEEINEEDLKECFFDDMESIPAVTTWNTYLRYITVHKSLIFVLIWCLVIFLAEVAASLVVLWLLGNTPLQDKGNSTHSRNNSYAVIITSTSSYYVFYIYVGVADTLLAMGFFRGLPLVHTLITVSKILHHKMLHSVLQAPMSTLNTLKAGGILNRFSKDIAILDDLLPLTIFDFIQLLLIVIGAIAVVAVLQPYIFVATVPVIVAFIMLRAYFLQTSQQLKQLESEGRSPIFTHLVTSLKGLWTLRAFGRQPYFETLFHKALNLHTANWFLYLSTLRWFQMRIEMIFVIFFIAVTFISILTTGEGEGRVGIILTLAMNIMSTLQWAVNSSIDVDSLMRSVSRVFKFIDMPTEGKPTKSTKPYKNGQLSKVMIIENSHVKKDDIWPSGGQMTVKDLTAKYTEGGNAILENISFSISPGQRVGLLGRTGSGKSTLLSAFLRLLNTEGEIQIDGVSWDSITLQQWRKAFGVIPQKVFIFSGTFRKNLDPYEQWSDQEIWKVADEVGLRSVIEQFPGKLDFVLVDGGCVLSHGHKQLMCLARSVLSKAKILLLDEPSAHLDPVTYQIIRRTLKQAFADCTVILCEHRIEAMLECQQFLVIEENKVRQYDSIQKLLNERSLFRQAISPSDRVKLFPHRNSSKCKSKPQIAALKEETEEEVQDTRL

C[C@H](Nc1ccc(F)c(-n2nc(C(F)(F)F)c3c2[C@@H](OC24CC(C(=O)O)(C2)C4)CCC3)c1)c1ccc2c(c1)OC(F)(F)O2 (single isomer, unassigned) [99 (P1)]
RLUs: ΔF508-CFTR-HRP trafficking data normalized to the vehicle treated control (0.3% DMSO): C (RLU 0.0 μM-3.5 μM)

C[C@H](Oc1cncc(-n2nc(C(F)(F)F)c3c2[C@@H](OC24CC(C(=O)O)(C2)C4)CCC3)c1)c1cc2c(cc1F)OC(F)(F)O2 (single isomer, unassigned) [74 (P1)]
RLUs: ΔF508-CFTR-HRP trafficking data normalized to the vehicle treated control (0.3% DMSO): A (RLU 5.0 μM-10 μM)

C[C@H](Oc1cc(-n2nc(C(F)(F)F)c3c2[C@@H](OC[C@H]2CC[C@H](C(=O)O)CC2)CCC3)cnc1F)c1ccc2c(c1)OC(F)(F)O2 (single isomer, unassigned) [82 (P1)]
RLUs: ΔF508-CFTR-HRP trafficking data normalized to the vehicle treated control (0.3% DMSO): B (RLU 3.5 μM-5.0 μM)

C[C@H](Oc1cc(-n2nc(C(F)(F)F)c3c2[C@H](OC24CC(C(=O)O)(C2)C4)CCC3)cnc1F)c1cc2c(cc1F)OC(F)(F)O2 (single isomer, unassigned) [75 (P2)]
RLUs: ΔF508-CFTR-HRP trafficking data normalized to the vehicle treated control (0.3% DMSO): C (RLU 0.0 μM-3.5 μM)

O=C(O)c1ccc(O[C@H]2CCCc3c(C(F)(F)F)nn(-c4ccnc(N[C@H](c5ccc6c(c5)OC(F)(F)O6)C5CC5)c4)c32)cc1 (single isomer, unassigned) [Example 90]
RLUs: ΔF508-CFTR-HRP trafficking data normalized to the vehicle treated control (0.3% DMSO): C (RLU 0.0 μM-3.5 μM)

C[C@H](Nc1cc(-n2nc(C(F)(F)F)c3c2[C@H](OC24CC(c5nc(=O)o[nH]5)(C2)C4)CCC3)ccc1F)c1cc2c(cc1F)OC(F)(F)O2 (single isomer, unassigned) [103 (P2)]
RLUs: ΔF508-CFTR-HRP trafficking data normalized to the vehicle treated control (0.3% DMSO): C (RLU 0.0 μM-3.5 μM)

C[C@H](Nc1cc(-c2nn(C3COC3)c3c2[C@@H](Oc2ccc(C(=O)O)cc2)CCC3)ccn1)c1ccc2c(c1)OC(F)(F)O2 (single isomer, unassigned) [Example 127]
RLUs: ΔF508-CFTR-HRP trafficking data normalized to the vehicle treated control (0.3% DMSO): A (RLU 5.0 μM-10 μM)

CC(Sc1cccc(-n2nc(C(F)(F)F)c3c2C(Oc2ccc(C(=O)O)cc2)CCC3)c1)c1ccc2c(c1)OC(F)(F)O2 (stereo not shown) [Example 116, 4-[[1-[3-[1-(2,2-difluoro-1,3-benzodioxol-5-yl)ethylsulfanyl]phenyl]-3-(trifluoromethyl)-4,5,6,7-tetrahydroindazol-7-yl]oxy]benzoic acid]
RLUs: ΔF508-CFTR-HRP trafficking data normalized to the vehicle treated control (0.3% DMSO): B (RLU 3.5 μM-5.0 μM)

C[C@H](Oc1cc(-n2nc(C(F)(F)F)c3c2[C@@H](NC(=O)c2ccc(C(=O)O)cc2)CCC3)ccn1)c1ccc2c(c1)OC(F)(F)O2 (single isomer, unassigned) [Example 114]
RLUs: ΔF508-CFTR-HRP trafficking data normalized to the vehicle treated control (0.3% DMSO): C (RLU 0.0 μM-3.5 μM)

C[C@@H](Oc1cc(-n2nc(C(F)(F)F)c3c2C(O[C@H]2CC[C@H](C(=O)O)CC2)CCC3)ccn1)c1ccc2c(c1)OC(F)(F)O2 (single isomer, unassigned) [Example 43]
RLUs: ΔF508-CFTR-HRP trafficking data normalized to the vehicle treated control (0.3% DMSO): A (RLU 5.0 μM-10 μM)

C[C@H](Oc1cc(-n2nc(C(F)(F)F)c3c2[C@H](OC24CC(CC(=O)O)(C2)C4)CCC3)ccc1F)c1ccc2c(c1)OC(F)(F)O2 (single isomer, unassigned) [78 (P2)]
RLUs: ΔF508-CFTR-HRP trafficking data normalized to the vehicle treated control (0.3% DMSO): C (RLU 0.0 μM-3.5 μM)

C[C@H](Oc1cc(-n2nc(C(F)(F)F)c3c2[C@H](Oc2ccc(C(=O)O)cc2)CCC3)ccn1)c1ccc2c(c1)OC(F)(F)O2 (single isomer, unassigned) [Example 23]
RLUs: ΔF508-CFTR-HRP trafficking data normalized to the vehicle treated control (0.3% DMSO): C (RLU 0.0 μM-3.5 μM)

C[C@H](Oc1cc(-n2nc(C(F)(F)F)c3c2[C@@H](Oc2ccc(C(=O)O)cc2)CCC3)cnn1)c1ccc2c(c1)OC(F)(F)O2 (single isomer, unassigned) [Example 61]
RLUs: ΔF508-CFTR-HRP trafficking data normalized to the vehicle treated control (0.3% DMSO): C (RLU 0.0 μM-3.5 μM)
